Test results as given in ChEMBL document CHEMBL1201862, “PubChem BioAssay data set” (2004).
Several values for one entry are separate records, joined by “and”; a condition that tells them apart may be missing. Identical values can stand only once.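 Growth conditions: 96-well plates. Treatment: test compound, 48 hours, 5 concentrations. Analysis: linear interpolation between bracketing concentrations; unreached endpoints set to highest concentration. GI50 = concentration required for 50% inhibition of growth.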 Activity calls are given as the source filed them. Cut-off read from the data, not from the text of the source: active = GI50 up to about 1.1 µM and inactive = higher.

What was measured:
Test in all cases: NCI-60 cell line screen, 48 h
786-0 = tested on: 786-0
A549 = tested on: A549
ACHN = tested on: ACHN
BT-549 = tested on: BT-549
CAKI-1 = tested on: CAKI-1
CCRF-CEM = tested on: CCRF-CEM
COLO 205 = tested on: COLO 205
DU-145 = tested on: DU-145
EKVX = tested on: EKVX
HCC 2998 = tested on: HCC 2998
HCT-116 = tested on: HCT-116
HCT-15 = tested on: HCT-15
HL-60 = tested on: HL-60
HOP-62 = tested on: HOP-62
HT-29 = tested on: HT-29
Hs-578T = tested on: Hs-578T
IGROV-1 = tested on: IGROV-1
K562 = tested on: K562
KM12 = tested on: KM12
LOX IMVI = tested on: LOX IMVI
M14 = tested on: M14
MCF7 = tested on: MCF7
MDA-MB-231 = tested on: MDA-MB-231
MDA-MB-435 = tested on: MDA-MB-435
MOLT-4 = tested on: MOLT-4
Malme-3M = tested on: Malme-3M
NCI-H226 = tested on: NCI-H226
NCI-H23 = tested on: NCI-H23
NCI-H460 = tested on: NCI-H460
NCI-H522 = tested on: NCI-H522
NCI/ADR-RES = tested on: NCI/ADR-RES
OVCAR-3 = tested on: OVCAR-3
OVCAR-4 = tested on: OVCAR-4
OVCAR-5 = tested on: OVCAR-5
OVCAR-8 = tested on: OVCAR-8
PC-3 = tested on: PC-3
RPMI-8226 = tested on: RPMI-8226
RXF 393 = tested on: RXF 393
SF-268 = tested on: SF-268
SF-295 = tested on: SF-295
SF-539 = tested on: SF-539
SK-MEL-28 = tested on: SK-MEL-28
SK-MEL-2 = tested on: SK-MEL-2
SK-OV-3 = tested on: SK-OV-3
SN12C = tested on: SN12C
SNB-19 = tested on: SNB-19
SNB-75 = tested on: SNB-75
SR = tested on: SR
SW-620 = tested on: SW-620
T47D = tested on: T47D
TK-10 = tested on: TK-10
U-251 = tested on: U-251
UACC-257 = tested on: UACC-257
UACC-62 = tested on: UACC-62
UO-31 = tested on: UO-31
A498 = tested on: A498
HOP-92 = tested on: HOP-92
SK-MEL-5 = tested on: SK-MEL-5

O=C(CNC(=O)c1ccccc1)Oc1c(Cl)c(Cl)c(Cl)c(Cl)c1Cl
GI50 (786-0): 50.5 µM (inactive)
GI50 (A549): 29 µM (inactive)
GI50 (ACHN): 25.2 µM (inactive)
GI50 (BT-549): 20.5 µM (inactive)
GI50 (CAKI-1): 25.8 µM (inactive)
GI50 (CCRF-CEM): 38.7 µM (inactive)
GI50 (COLO 205): 35 µM (inactive)
GI50 (DU-145): 23.4 µM (inactive)
GI50 (EKVX): 21.5 µM (inactive)
GI50 (HCC 2998): 27.7 µM (inactive)
GI50 (HCT-116): 56.4 µM (inactive)
GI50 (HCT-15): 30.6 µM
GI50 (HL-60): 24.6 µM (inactive)
GI50 (HOP-62): 38.3 µM (inactive)
GI50 (HT-29): 30.5 µM (inactive)
GI50 (Hs-578T): 24.9 µM (inactive)
GI50 (IGROV-1): 27.8 µM (inactive)
GI50 (K562): 28.2 µM (inactive)
GI50 (KM12): 22.4 µM (inactive)
GI50 (LOX IMVI): 35 µM (inactive)
GI50 (M14): 64.9 µM (inactive)
GI50 (MCF7): 40.2 µM (inactive)
GI50 (MDA-MB-231): 22.9 µM (inactive)
GI50 (MDA-MB-435): 36.1 µM (inactive)
GI50 (MOLT-4): 29 µM (inactive)
GI50 (Malme-3M): 28.8 µM (inactive)
GI50 (NCI-H226): 29 µM (inactive)
GI50 (NCI-H23): > 100 µM (inactive)
GI50 (NCI-H460): 38.5 µM (inactive)
GI50 (NCI-H522): 29.6 µM (inactive)
GI50 (NCI/ADR-RES): 31 µM (inactive)
GI50 (OVCAR-3): 25.4 µM (inactive)
GI50 (OVCAR-4): 45.5 µM (inactive)
GI50 (OVCAR-5): 47.2 µM (inactive)
GI50 (OVCAR-8): 22.1 µM (inactive)
GI50 (PC-3): 24.7 µM (inactive)
GI50 (RPMI-8226): 38.7 µM (inactive)
GI50 (RXF 393): 39.4 µM (inactive)
GI50 (SF-268): 40.6 µM (inactive)
GI50 (SF-295): 33.2 µM (inactive)
GI50 (SF-539): 28.2 µM (inactive)
GI50 (SK-MEL-28): 39 µM (inactive)
GI50 (SK-MEL-2): 21 µM (inactive)
GI50 (SK-OV-3): 72.4 µM (inactive)
GI50 (SN12C): 32.1 µM (inactive)
GI50 (SNB-19): 44.9 µM (inactive)
GI50 (SNB-75): 45.5 µM (inactive)
GI50 (SR): 32.4 µM (inactive)
GI50 (SW-620): 21.6 µM (inactive)
GI50 (T47D): 42.6 µM (inactive)
GI50 (TK-10): 40.4 µM (inactive)
GI50 (U-251): 26.7 µM (inactive)
GI50 (UACC-257): 19.6 µM (inactive)
GI50 (UACC-62): 21.9 µM (inactive)
GI50 (UO-31): 22 µM (inactive)

CC(C)[Si](Oc1ccc(CC2N(C(=O)c3ccc([N+](=O)[O-])cc3)C(CCc3ccccc3)CC2(C)C=O)cc1)(C(C)C)C(C)C (configuration not stated)
GI50 (786-0): 17.2 µM (inactive)
GI50 (A498): > 100 µM (inactive)
GI50 (ACHN): > 100 µM (inactive)
GI50 (BT-549): 21.3 µM (inactive)
GI50 (CAKI-1): > 100 µM (inactive)
GI50 (CCRF-CEM): > 100 µM (inactive)
GI50 (COLO 205): > 100 µM (inactive)
GI50 (DU-145): 61.1 µM (inactive)
GI50 (EKVX): 82.6 µM (inactive)
GI50 (HCC 2998): > 100 µM (inactive)
GI50 (HCT-15): 5.6 µM
GI50 (HOP-62): 7.57 µM (inactive)
GI50 (HOP-92): 13.9 µM (inactive)
GI50 (Hs-578T): 32 µM (inactive)
GI50 (IGROV-1): 7.38 µM (inactive)
GI50 (LOX IMVI): > 100 µM (inactive)
GI50 (MDA-MB-231): 12.9 µM (inactive)
GI50 (Malme-3M): > 100 µM (inactive)
GI50 (NCI-H226): 15.5 µM (inactive)
GI50 (NCI-H23): 27.8 µM (inactive)
GI50 (NCI-H522): > 100 µM (inactive)
GI50 (OVCAR-3): > 100 µM (inactive)
GI50 (OVCAR-4): > 100 µM (inactive)
GI50 (OVCAR-5): > 100 µM (inactive)
GI50 (OVCAR-8): 13.6 µM (inactive)
GI50 (PC-3): > 100 µM (inactive)
GI50 (RPMI-8226): > 100 µM (inactive)
GI50 (RXF 393): 5.85 µM (inactive)
GI50 (SF-268): 19.4 µM (inactive)
GI50 (SF-295): 7.05 µM (inactive)
GI50 (SF-539): 6.22 µM (inactive)
GI50 (SK-MEL-28): > 100 µM (inactive)
GI50 (SK-MEL-2): 86.7 µM (inactive)
GI50 (SK-OV-3): 27.7 µM (inactive)
GI50 (SNB-19): 15.6 µM (inactive)
GI50 (SR): 2.58 µM (inactive)
GI50 (T47D): > 100 µM (inactive)
GI50 (TK-10): > 100 µM (inactive)
GI50 (U-251): 20.5 µM (inactive)
GI50 (UACC-257): > 100 µM (inactive)
GI50 (UACC-62): > 100 µM (inactive)
GI50 (UO-31): > 100 µM (inactive)

CC(=O)OC12C3C4C1C1C2C3C41OC(C)=O (configuration not stated)
GI50 (786-0): > 100 µM (inactive)
GI50 (A498): > 100 µM (inactive)
GI50 (A549): > 100 µM (inactive)
GI50 (ACHN): > 100 µM (inactive)
GI50 (BT-549): > 100 µM (inactive)
GI50 (CAKI-1): > 100 µM (inactive)
GI50 (CCRF-CEM): > 100 µM (inactive)
GI50 (COLO 205): > 100 µM (inactive)
GI50 (DU-145): > 100 µM (inactive)
GI50 (EKVX): > 100 µM (inactive)
GI50 (HCC 2998): > 100 µM (inactive)
GI50 (HCT-116): > 100 µM (inactive)
GI50 (HCT-15): > 100 µM
GI50 (HL-60): > 100 µM (inactive)
GI50 (HOP-62): > 100 µM (inactive)
GI50 (HOP-92): > 100 µM (inactive)
GI50 (HT-29): > 100 µM (inactive)
GI50 (IGROV-1): > 100 µM (inactive)
GI50 (K562): > 100 µM (inactive)
GI50 (KM12): > 100 µM (inactive)
GI50 (LOX IMVI): > 100 µM (inactive)
GI50 (M14): > 100 µM (inactive)
GI50 (MCF7): > 100 µM (inactive)
GI50 (MDA-MB-231): > 100 µM (inactive)
GI50 (MDA-MB-435): > 100 µM (inactive)
GI50 (MOLT-4): > 100 µM (inactive)
GI50 (NCI-H226): > 100 µM (inactive)
GI50 (NCI-H23): > 100 µM (inactive)
GI50 (NCI-H460): > 100 µM (inactive)
GI50 (NCI-H522): > 100 µM (inactive)
GI50 (NCI/ADR-RES): > 100 µM (inactive)
GI50 (OVCAR-3): > 100 µM (inactive)
GI50 (OVCAR-4): > 100 µM (inactive)
GI50 (OVCAR-5): > 100 µM (inactive)
GI50 (OVCAR-8): > 100 µM (inactive)
GI50 (PC-3): > 100 µM (inactive)
GI50 (RPMI-8226): > 100 µM (inactive)
GI50 (RXF 393): > 100 µM (inactive)
GI50 (SF-268): > 100 µM (inactive)
GI50 (SF-295): > 100 µM (inactive)
GI50 (SF-539): > 100 µM (inactive)
GI50 (SK-MEL-28): > 100 µM (inactive)
GI50 (SK-MEL-2): > 100 µM (inactive)
GI50 (SK-MEL-5): > 100 µM (inactive)
GI50 (SK-OV-3): > 100 µM (inactive)
GI50 (SN12C): > 100 µM (inactive)
GI50 (SNB-75): > 100 µM (inactive)
GI50 (SR): > 100 µM (inactive)
GI50 (SW-620): > 100 µM (inactive)
GI50 (T47D): > 100 µM (inactive)
GI50 (TK-10): > 100 µM (inactive)
GI50 (U-251): > 100 µM (inactive)
GI50 (UACC-257): > 100 µM (inactive)
GI50 (UACC-62): > 100 µM (inactive)
GI50 (UO-31): > 100 µM (inactive)

CCOC(=O)c1c(-c2ccc(OC)c(O)c2)c(C#N)c(=S)n(C2OC(COC(C)=O)C(OC(C)=O)C(OC(C)=O)C2OC(C)=O)c1-c1ccccc1 (configuration not stated)
GI50 (A498): > 100 µM (inactive)
GI50 (A549): 51.9 µM (inactive)
GI50 (BT-549): 28.8 µM (inactive)
GI50 (Malme-3M): 32.4 µM (inactive)
GI50 (NCI-H226): > 100 µM (inactive)
GI50 (NCI-H460): 67.1 µM (inactive) and 34 µM (inactive)
GI50 (NCI-H522): 21.4 µM (inactive)
GI50 (OVCAR-5): > 100 µM (inactive)
GI50 (OVCAR-8): > 100 µM (inactive)
GI50 (RXF 393): 50.1 µM (inactive)
GI50 (SF-295): 52.8 µM (inactive)
GI50 (SNB-19): > 100 µM (inactive) and 83.2 µM (inactive)
GI50 (SR): > 100 µM (inactive) and 60.3 µM (inactive)
GI50 (SW-620): 59.7 µM (inactive)
GI50 (U-251): 90.4 µM (inactive)
